Source: patent US20230272357A1, “METHODS OF GENOME EDITING INCLUDING CONTROLLED OPENING OF CHROMATIN” (Wisconsin Alumni Research Foundation, priority 2021, published 2023)
Entries after “also recorded” stand apart in the source; their conditions may differ.

Tests used:
Format in all cases: cell-based, human
iPSCs [1] = assay: Cell viability by Ghost Dye Red 780 flow cytometry
Method: Cell viability: Flow cytometry was performed using Ghost Dye™ Red 780 viability dye (Tonbo Biosciences) to determine the dose range of the TSA that can be administrated to the cells without affecting cell viability. iPSCs (15,000 per well) were cultured overnight and incubated with TSA in 96-well plates for 24 h. The next day, cells were singularized using Accutase™ (STEMCELL technologies), washed with PBS, centrifuged at 300 g for 5 minutes, and Ghost Dye™ Red 780 viability dye was added at 1:1000 concentration for 20 minutes at room temperature. Cells were then washed with PBS, spun down at 300g for 5 minutes, and resuspended in 300 μL of PBS. Cells were run on an Attune NxT™ flow cytometer (Thermo Fisher Scientific) and subsequent analysis was performed using Flowjo software (BD).
Flow cytometry and fluorescence activated cell sorting: Flow cytometry was performed on singularized iPSCs using Attune™ Nxt flow cytometer (ThermoFisher Scientific) and analyzed using the FlowJo Software. Ghost Dye™ Red 780, ATTO 550, and GFP fluorescence were detected using 780/60, 585/16, and 530/30 filters in […] positions, respectively. Gates were established by running singularized untransfected iPSCs. The percentage of viable cells was calculated as the ratio of Ghost Dye™ Red 780-cells to the total number of single cells. Transfection efficiency was calculated as the percentage of ATTO 550+ cells to the total number of viable cells on day 2 post-transfection. Gene editing efficiency was calculated as the percentage of GFP-cells to the total number of viable cells on day 6 post-transfection. For the sorting experiments, iPSCs were singularized 6 days post-transfection using Accutase™, washed with PBS+20 μM ROCK inhibitor, centrifuged at 300 g for 5 minutes. Ghost Dye™ Red 780 viability dye (Tonbo Biosciences) was then added at 1:1000 concentration for 20 minutes at room temperature. Cells were washed again with PBS+20 μM ROCK inhibitor, spun down at 300 g for 5 minutes, and resuspended in 300 μL of FACS buffer (PBS+2% BSA+20 μM ROCK inhibitor). GFP-cells were then sorted into tubes containing mTeSR1+20 μM ROCK inhibitor, and seeded onto Matrigel®-coated 6 well polystyrene plates at 100 cells/well to obtain single-cell iPSC clones.

[2] = tested on: HIST1H2BJ-GFP, AAVS1 (S8, S10), EMX1, VEGFA, TRAC (S2, S3) loci; assay: Deep sequencing (NGS) of edited iPSCs at open and closed chromatin loci
Method: Next Generation Sequencing of genomic DNA: DNA was isolated from iPSCs by adding 50 μL of DNA QuickExtract™/well (Epicentre) following treatment by Accutase™ and centrifugation. The DNA extract solution was incubated at 65° C. for 15 min, 68° C. for 15 min, and finally 98° C. for 10 min. Genomic PCR was performed according to the manufacturer's instructions using Q5 Hot Start polymerase (NEB). Sequencing indices were added with a second round of PCR using indexing primers (IDT), followed by a purification using AMPure XP magnetic bead purification kit (Beckman Coulter). Samples were pooled and sequenced on an Illumina® MiniSeq at a run length of 1×150 bp or 2×150 bp according to the manufacturer's instructions. Analysis was performed using CRISPR RGEN.
Multiple gRNA sequences targeting different sites of open (HIST1H2BJ and AAVS1) and closed chromatin (TRAC, VEGFA, EMX1) were selected to investigate if the observed TSA-induced increase in gene-editing efficiency at HIST1H2BJ-GFP locus is specific to the gRNA sequence or the chromatin state of the target locus. To gain a more detailed analysis of gene-edited events in iPSCs, deep sequencing was performed on edited cells obtained after TSA treatment. The genomic DNA was harvested on day 6 after Cas9 RNP delivery. PCR using primers flanking the gRNA target sites was then performed and prepared for next-generation sequencing (NGS) using the Illumina® MiniSeq™ system. […] Corroborating with this observation, we noted an increase in the local chromatin accessibility at the on-target sites upon TSA treatment (Data not shown). […] The highest frequency of indels was found three to four nucleotides upstream from the protospacer adjacent motif (PAM) sequence, consistent with reports of type II CRISPR systems (FIG. 2C,E). Furthermore, edited reads contained higher deletion events (approximately 50-80%) than insertion events (approximately 5-20%). Similar observations were reported in deep sequencing analysis of human cells edited by S. Pyogenes Cas9 (SpyCas9). The percentage of edited reads with Single Nucleotide Polymorphisms (SNPs) decreased upon chromatin decondensation via TSA treatment (FIG. 2F), while the relative distribution of SNPs around the cut site remained similar (data not shown). This is consistent with reports that indicate nucleosomes are enriched in SNPs.

iPSCs [3] = assay: Bulk RNA sequencing of TSA-treated iPSCs; details: edited clones from 6.25 ng/mL TSA, data not shown
Method: RNA extraction and Bulk RNA sequencing: RNA was extracted from iPSCs in one well of 6-well plate using the GenElute™ Total RNA Purification Kit (Millipore Sigma) according to the manufacturer's instructions. RNA was then quantified using Nanodrop™ 2000 (ThermoFisher Scientific) and the integrity of samples were confirmed with the following three criteria for inclusion: 1) a concentration>50 ng/ml, 2) an A260/A280 rating of 1.8 and 2.1, and 3) an A260/A230 ratio>1.8. Total RNA was submitted to the University of Wisconsin-Madison Biotechnology Center and was verified for purity and integrity via the NanoDrop™ One Spectrophotometer and Agilent 2100 BioAnalyzer, respectively. Samples that met the Illumina® sample input guidelines were prepared according to the TruSeq®Stranded Total Sample Preparation Guide (1000000040499 v00) using the Illumina® TruSeq ® Stranded Total Sample Preparation kits (Illumina Inc., San Diego, Calif., USA) and sequenced on an Illumina® NovaSeg™ 6000 system at a run length 2×150 bp and target read depth of 30 million reads/sample at the University of Wisconsin—Madison Biotechnology Center. […] Normalized counts were then extracted and genes with read counts <10 were filtered out. Fold change was then calculated as the ratio of the reads of the TSA-treated iPSCs to the untreated iPSCs.

[4] = edited iPSCs obtained after TSA treatment, all loci
[5] = seven loci, change upon TSA treatment

## CC(/C=C/C(=O)NO)=C\[C@@H](C)C(=O)c1ccc(N(C)C)cc1 [TSA, Trichostatin A]
iPSCs [1]; 12.5 ng/mL TSA, FIG. 1E
  Cell toxicity: higher cell toxicity
iPSCs [1]; TSA 0, 3.13, 6.25, 12.5 ng/mL, FIG. 1D
  Cell viability (% GhostDye- cells/total cells): decreases
iPSCs [1]; iPSCs, TSA 0-200 ng/mL, data not shown
  Cell viability: decreased with the increase in TSA concentration
iPSCs [1]; iPSCs, TSA range 0-200 ng/mL tested
  TSA concentration with considerable decrease in cell viability: > 25 ng/mL
[2]; [4]
  Deletion events in edited reads: 50-80%
  Insertion events in edited reads: 5-20%
[2]; [5]
  % edited reads with insertions: no significant change; also recorded: did not undergo significant change
  % edited reads with only SNPs: decreased
[2]; seven open and closed loci, day 6, TSA vs 0 ng/mL
  % editing efficiency by deep sequencing: increased
iPSCs [3]
  Gene expression of pluripotency marker genes (OCT4, NANOG, SOX2, TRA-1-60): did not decrease
